# Data as given in the kinase profiling compilation of Christmann-Franck et al. (2016).
# Where “and” joins values, the source holds several entries; their conditions need not be identical. Identical values can stand only once.
# Legend:
# Test in all cases: radiometric filter-binding kinase assay, Kinase HotSpot
# Conditions in all cases: compound 0.5 µM; ATP 10 µM
# [1] = target: TAOK2 (human) (UniProt Q9UL54)
# [2] = target: STK17A (human) (UniProt Q9UEE5)
# [3] = target: MAP4K4 (human) (UniProt O95819)
# [4] = target: SRMS (human) (UniProt Q9H3Y6)
# [5] = target: CHEK1 (human) (UniProt O14757)
# [6] = target: MINK1 (human) (UniProt Q8N4C8)
# [7] = target: LRRK2 (human) (UniProt Q5S007)
# [8] = target: MAPK8 (human) (UniProt P45983)
# [9] = target: STK24 (human) (UniProt Q9Y6E0)
# [10] = target: NEK3 (human) (UniProt P51956)
# [11] = target: MARK3 (human) (UniProt P27448)
# [12] = target: PRKCB1 (human) (UniProt P05771)
# [13] = target: CSNK1G2 (human) (UniProt P78368)
# [14] = target: NEK7 (human) (UniProt Q8TDX7)
# [15] = target: NEK6 (human) (UniProt Q9HC98)
# [16] = target: STK25 (human) (UniProt O00506)
# [17] = target: MAP3K2 (human) (UniProt Q9Y2U5)
# [18] = target: PRKCH (human) (UniProt P24723)
# [19] = target: ULK2 (human) (UniProt Q8IYT8)
# [20] = target: PRKACA (human) (UniProt P17612)
# [21] = test system: MKNK1 (human), Q9BUB5 [T385D; 165-205 del]
# [22] = target: WNK2 (human) (UniProt Q9Y3S1)
# [23] = target: MARK4 (human) (UniProt Q96L34)
# [24] = target: HIPK1 (human) (UniProt Q86Z02)
# [25] = target: ADRBK1 (human) (UniProt P25098)
# [26] = target: LYN (human) (UniProt P07948)
# [27] = target: DYRK1A (human) (UniProt Q13627)
# [28] = target: DAPK2 (human) (UniProt Q9UIK4)
# [29] = test system: MAP2K6 (human), P52564 [S207E/T211E]
# [30] = target: SIK2 (human) (UniProt Q9H0K1)
# [31] = target: ROS1 (human) (UniProt P08922)
# [32] = target: SRPK2 (human) (UniProt P78362)
# [33] = target: BTK (human) (UniProt Q06187)
# [34] = target: CDK4 CCND1 (human) (UniProt P24385+P11802)
# [35] = target: RPS6KB2 (human) (UniProt Q9UBS0)
# [36] = target: ACVR1 (human) (UniProt Q04771)
# [37] = target: MAP4K2 (human) (UniProt Q12851)
# [38] = target: CSNK2A1 (human) (UniProt P68400)
# [39] = target: NTRK2 (human) (UniProt Q16620)
# [40] = target: GSK3A (human) (UniProt P49840)
# [41] = target: IRAK4 (human) (UniProt Q9NWZ3)
# [42] = target: FGR (human) (UniProt P09769)
# Sequence of STK17A (human) (Q9UEE5 whole entry, looked up): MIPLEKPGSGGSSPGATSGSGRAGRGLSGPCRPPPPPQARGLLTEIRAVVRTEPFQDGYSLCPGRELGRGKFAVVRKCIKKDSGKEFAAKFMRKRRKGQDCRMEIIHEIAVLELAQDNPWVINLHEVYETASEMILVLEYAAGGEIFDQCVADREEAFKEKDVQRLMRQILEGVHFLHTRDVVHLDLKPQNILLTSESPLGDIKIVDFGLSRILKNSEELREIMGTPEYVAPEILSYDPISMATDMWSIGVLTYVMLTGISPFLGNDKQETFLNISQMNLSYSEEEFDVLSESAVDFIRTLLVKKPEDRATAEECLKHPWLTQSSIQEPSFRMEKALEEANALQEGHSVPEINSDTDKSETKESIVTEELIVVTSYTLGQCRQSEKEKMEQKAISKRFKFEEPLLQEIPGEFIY
# Sequence of TAOK2 (human) (Q9UL54 whole entry, looked up): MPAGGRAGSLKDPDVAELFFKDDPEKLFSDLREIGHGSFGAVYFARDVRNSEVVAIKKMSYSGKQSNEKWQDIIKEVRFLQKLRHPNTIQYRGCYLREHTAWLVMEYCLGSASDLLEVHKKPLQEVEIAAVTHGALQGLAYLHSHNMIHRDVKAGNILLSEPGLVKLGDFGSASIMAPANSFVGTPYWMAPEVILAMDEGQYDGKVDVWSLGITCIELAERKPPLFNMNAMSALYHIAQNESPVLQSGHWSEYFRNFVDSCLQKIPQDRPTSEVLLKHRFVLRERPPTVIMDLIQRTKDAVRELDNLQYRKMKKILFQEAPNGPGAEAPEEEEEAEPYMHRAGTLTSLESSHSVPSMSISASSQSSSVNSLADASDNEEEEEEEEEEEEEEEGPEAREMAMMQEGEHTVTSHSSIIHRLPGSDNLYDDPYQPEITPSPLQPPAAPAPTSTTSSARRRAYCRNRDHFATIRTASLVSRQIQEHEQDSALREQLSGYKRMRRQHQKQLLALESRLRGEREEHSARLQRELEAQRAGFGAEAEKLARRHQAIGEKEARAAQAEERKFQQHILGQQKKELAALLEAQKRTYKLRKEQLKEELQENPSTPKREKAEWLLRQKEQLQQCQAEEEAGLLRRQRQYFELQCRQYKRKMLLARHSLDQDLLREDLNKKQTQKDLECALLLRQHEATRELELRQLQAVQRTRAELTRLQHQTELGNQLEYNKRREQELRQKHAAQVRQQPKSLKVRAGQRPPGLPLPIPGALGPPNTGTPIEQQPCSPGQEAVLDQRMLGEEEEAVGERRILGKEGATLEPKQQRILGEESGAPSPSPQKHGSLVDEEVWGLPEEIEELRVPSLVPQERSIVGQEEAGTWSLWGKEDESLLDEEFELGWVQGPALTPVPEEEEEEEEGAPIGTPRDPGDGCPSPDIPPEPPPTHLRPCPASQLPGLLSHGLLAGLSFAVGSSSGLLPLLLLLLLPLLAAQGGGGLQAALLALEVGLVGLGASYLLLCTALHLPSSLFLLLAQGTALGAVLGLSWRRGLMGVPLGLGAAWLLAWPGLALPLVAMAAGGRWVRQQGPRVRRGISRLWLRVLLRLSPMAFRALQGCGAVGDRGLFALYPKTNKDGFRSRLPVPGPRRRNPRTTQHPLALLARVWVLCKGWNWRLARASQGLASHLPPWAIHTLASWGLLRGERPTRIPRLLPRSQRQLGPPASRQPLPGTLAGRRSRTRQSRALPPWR
# Sequence of ADRBK1 (human) (P25098 whole entry, looked up): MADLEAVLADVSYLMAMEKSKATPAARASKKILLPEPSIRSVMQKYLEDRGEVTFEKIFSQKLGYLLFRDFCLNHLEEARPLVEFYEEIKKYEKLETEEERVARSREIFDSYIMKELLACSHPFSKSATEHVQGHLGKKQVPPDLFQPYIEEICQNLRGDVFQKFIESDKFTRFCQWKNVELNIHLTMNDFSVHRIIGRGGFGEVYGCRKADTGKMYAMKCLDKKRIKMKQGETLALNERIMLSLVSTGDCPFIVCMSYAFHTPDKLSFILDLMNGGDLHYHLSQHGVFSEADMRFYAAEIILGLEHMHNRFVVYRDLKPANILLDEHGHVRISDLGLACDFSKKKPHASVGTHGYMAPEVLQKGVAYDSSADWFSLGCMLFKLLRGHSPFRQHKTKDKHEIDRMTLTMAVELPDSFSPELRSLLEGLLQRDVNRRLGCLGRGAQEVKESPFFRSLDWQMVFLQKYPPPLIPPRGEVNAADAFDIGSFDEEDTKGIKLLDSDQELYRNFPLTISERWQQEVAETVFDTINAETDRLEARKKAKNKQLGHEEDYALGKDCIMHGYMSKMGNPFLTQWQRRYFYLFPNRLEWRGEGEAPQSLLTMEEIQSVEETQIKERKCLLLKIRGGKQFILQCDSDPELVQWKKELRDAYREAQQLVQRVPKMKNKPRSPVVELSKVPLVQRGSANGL
# Sequence of SRMS (human) (Q9H3Y6 whole entry, looked up): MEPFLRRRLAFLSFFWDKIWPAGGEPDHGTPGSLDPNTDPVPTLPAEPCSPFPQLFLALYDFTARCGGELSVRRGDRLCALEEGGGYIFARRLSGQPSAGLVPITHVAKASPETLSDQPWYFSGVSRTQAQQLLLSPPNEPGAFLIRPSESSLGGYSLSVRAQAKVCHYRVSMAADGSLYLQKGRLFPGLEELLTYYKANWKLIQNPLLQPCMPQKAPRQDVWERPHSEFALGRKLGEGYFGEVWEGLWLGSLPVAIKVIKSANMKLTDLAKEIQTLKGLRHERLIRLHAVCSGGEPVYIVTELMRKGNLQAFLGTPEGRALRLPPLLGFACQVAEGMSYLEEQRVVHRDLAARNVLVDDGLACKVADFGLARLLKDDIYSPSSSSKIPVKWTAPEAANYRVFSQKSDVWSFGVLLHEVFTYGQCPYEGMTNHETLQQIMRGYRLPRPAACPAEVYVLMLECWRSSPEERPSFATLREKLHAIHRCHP
# Sequence of PRKCB1 (human) (P05771 whole entry, looked up): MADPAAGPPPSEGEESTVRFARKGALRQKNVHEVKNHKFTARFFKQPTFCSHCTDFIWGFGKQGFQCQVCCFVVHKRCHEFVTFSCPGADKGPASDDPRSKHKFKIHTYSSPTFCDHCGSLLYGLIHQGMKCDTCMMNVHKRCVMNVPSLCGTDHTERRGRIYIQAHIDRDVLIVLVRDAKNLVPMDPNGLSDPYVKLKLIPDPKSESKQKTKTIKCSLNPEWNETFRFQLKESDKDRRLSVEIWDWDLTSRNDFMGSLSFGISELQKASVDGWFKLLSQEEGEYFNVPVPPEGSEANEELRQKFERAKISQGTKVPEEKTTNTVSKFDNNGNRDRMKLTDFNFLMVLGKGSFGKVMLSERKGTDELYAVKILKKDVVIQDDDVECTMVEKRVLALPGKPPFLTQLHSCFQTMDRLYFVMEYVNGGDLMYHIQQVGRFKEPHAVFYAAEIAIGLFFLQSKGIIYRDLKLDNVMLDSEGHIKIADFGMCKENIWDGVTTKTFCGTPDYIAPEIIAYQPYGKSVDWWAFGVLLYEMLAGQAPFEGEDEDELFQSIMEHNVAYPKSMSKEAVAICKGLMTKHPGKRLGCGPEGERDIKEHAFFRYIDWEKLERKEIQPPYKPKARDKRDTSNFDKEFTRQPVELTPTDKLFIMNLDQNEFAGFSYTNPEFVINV
# Sequence of SIK2 (human) (Q9H0K1 whole entry, looked up): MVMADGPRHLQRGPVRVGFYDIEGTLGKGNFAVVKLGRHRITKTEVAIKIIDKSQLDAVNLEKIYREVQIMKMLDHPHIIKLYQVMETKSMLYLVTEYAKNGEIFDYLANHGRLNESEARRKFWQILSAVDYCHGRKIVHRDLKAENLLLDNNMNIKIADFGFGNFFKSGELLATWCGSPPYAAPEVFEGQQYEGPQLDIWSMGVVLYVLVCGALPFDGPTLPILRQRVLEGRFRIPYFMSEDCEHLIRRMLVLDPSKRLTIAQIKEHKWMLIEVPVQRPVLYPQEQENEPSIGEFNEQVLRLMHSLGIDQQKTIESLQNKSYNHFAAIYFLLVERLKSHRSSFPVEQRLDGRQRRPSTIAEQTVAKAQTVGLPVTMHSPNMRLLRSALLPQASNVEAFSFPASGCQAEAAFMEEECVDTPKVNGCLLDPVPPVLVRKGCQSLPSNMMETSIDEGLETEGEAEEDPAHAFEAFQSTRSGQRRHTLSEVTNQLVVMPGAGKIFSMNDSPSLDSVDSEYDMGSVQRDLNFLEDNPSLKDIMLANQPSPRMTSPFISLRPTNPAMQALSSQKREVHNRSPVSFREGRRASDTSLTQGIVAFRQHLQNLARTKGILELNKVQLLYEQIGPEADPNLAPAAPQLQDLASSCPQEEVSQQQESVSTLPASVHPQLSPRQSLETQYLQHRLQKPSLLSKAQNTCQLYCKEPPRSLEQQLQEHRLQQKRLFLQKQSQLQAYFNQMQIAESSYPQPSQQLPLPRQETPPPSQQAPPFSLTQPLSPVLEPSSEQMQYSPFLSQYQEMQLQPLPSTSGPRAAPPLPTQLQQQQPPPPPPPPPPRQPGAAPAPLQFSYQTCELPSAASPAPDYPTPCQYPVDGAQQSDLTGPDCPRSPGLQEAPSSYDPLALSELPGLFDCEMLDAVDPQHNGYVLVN
# Sequence of DAPK2 (human) (Q9UIK4 whole entry, looked up): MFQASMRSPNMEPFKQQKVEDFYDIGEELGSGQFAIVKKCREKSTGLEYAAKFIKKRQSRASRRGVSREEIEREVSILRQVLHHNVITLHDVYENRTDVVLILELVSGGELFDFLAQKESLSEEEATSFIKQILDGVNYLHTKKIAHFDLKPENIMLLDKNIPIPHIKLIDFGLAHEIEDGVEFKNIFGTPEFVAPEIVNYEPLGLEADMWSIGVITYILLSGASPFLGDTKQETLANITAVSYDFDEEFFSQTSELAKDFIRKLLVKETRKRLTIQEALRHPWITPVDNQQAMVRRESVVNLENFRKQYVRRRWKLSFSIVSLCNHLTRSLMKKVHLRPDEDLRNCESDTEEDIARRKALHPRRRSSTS
smiles,measurement,setting,value
COc1cc(Nc2c(C#N)cnc3cc(OCCCN4CCN(C)CC4)c(OC)cc23)c(Cl)cc1Cl,residual activity,[1],65.4%
same,residual activity,[2],107%
same,residual activity,[3],1.03%
same,residual activity,[4],90.6%
same,residual activity,[5],38.9%
same,residual activity,[6],1.21%
same,residual activity,[7],30.1%
same,residual activity,[8],105%
same,residual activity,[9],11%
same,residual activity,[10],85.9%
same,residual activity,[11],65.4%
same,residual activity,[12],99.8%
same,residual activity,[13],98.3%
same,residual activity,[14],94.6%
same,residual activity,[15],85.3%
same,residual activity,[16],10.1%
same,residual activity,[17],23.5%
same,residual activity,[18],102%
same,residual activity,[19],92.2%
same,residual activity,[20],73.8%
same,residual activity,[21],96.9%
same,residual activity,[22],94.2%
same,residual activity,[23],60.6%
same,residual activity,[24],96.3%
same,residual activity,[25],97.3%
same,residual activity,[26],2.13% and 6%
same,residual activity,[27],99.4%
same,residual activity,[28],82.9%
same,residual activity,[29],93.4%
same,residual activity,[30],1.93%
same,residual activity,[31],95.4%
same,residual activity,[32],101%
same,residual activity,[33],5.69%
same,residual activity,[34],97.1%
same,residual activity,[35],107%
same,residual activity,[36],93.3%
same,residual activity,[37],3.16%
same,residual activity,[38],116%
same,residual activity,[39],69.2%
same,residual activity,[40],103%
same,residual activity,[41],63.2%
same,residual activity,[42],11.5%
COc1cc2ncnc(Nc3ccc(OCc4ccccc4)cc3)c2cc1OC,residual activity,[1],106%
same,residual activity,[2],99.6%
same,residual activity,[3],103%
same,residual activity,[4],104%
same,residual activity,[5],101%
same,residual activity,[6],94.3%
same,residual activity,[7],92.2%
same,residual activity,[8],102%
same,residual activity,[9],104%
same,residual activity,[10],99.1%
same,residual activity,[11],106%
same,residual activity,[12],97.4%
same,residual activity,[13],98.4%
same,residual activity,[14],101%
same,residual activity,[15],97.6%
same,residual activity,[16],93.4%
same,residual activity,[17],113%
same,residual activity,[18],97.2%
same,residual activity,[19],97%
same,residual activity,[20],101%
same,residual activity,[21],101%
same,residual activity,[22],91.6%
same,residual activity,[23],99.5%
same,residual activity,[24],104%
same,residual activity,[25],101%
same,residual activity,[26],91.2% and 92.8%
same,residual activity,[27],105%
same,residual activity,[28],99.9%
same,residual activity,[29],109%
same,residual activity,[30],73.7%
same,residual activity,[31],98%
same,residual activity,[32],92.3%
same,residual activity,[33],90.6%
same,residual activity,[34],99.2%
same,residual activity,[35],108%
same,residual activity,[36],101%
same,residual activity,[37],114%
same,residual activity,[38],95.8%
same,residual activity,[39],92.5%
same,residual activity,[40],104%
same,residual activity,[41],119%
same,residual activity,[42],72.2%
COc1ccc(S(=O)(=O)N(CCO)c2ccccc2CN(C)C/C=C/c2ccc(Cl)cc2)cc1,residual activity,[1],90.9%
same,residual activity,[2],102%
same,residual activity,[3],97.6%
same,residual activity,[4],101%
same,residual activity,[5],93.5%
same,residual activity,[6],98.1%
same,residual activity,[7],101%
same,residual activity,[8],104%
same,residual activity,[9],101%
same,residual activity,[10],96.2%
same,residual activity,[11],102%
same,residual activity,[12],97.7%
same,residual activity,[13],103%
same,residual activity,[14],93.4%
same,residual activity,[15],103%
same,residual activity,[16],99.6%
same,residual activity,[17],95.3%
same,residual activity,[18],95.9%
same,residual activity,[19],102%
same,residual activity,[20],104%
same,residual activity,[21],103%
same,residual activity,[22],97.1%
same,residual activity,[23],102%
same,residual activity,[24],106%
same,residual activity,[25],97.9%
same,residual activity,[26],92.3% and 96.8%
same,residual activity,[27],102%
same,residual activity,[28],107%
same,residual activity,[29],108%
same,residual activity,[30],97.4%
same,residual activity,[31],95.4%
same,residual activity,[32],98.5%
same,residual activity,[33],96.4%
same,residual activity,[34],94.6%
same,residual activity,[35],97.1%
same,residual activity,[36],90.6%
same,residual activity,[37],92.6%
same,residual activity,[38],99.5%
same,residual activity,[39],104%
same,residual activity,[40],99.9%
same,residual activity,[41],97.2%
same,residual activity,[42],99.8%
COc1ccc(C(=O)Nc2sc3c(c2C(N)=O)CCCC3)cc1OC,residual activity,[1],97%
same,residual activity,[2],98.5%
same,residual activity,[3],79.9%
same,residual activity,[4],91%
same,residual activity,[5],112%
same,residual activity,[6],85%
same,residual activity,[7],87.4%
same,residual activity,[8],94.7%
same,residual activity,[9],93.9%
same,residual activity,[10],95.8%
same,residual activity,[11],94.1%
same,residual activity,[12],91.8%
same,residual activity,[13],98.7%
same,residual activity,[14],99%
same,residual activity,[15],92.7%
same,residual activity,[16],91.7%
same,residual activity,[17],105%
same,residual activity,[18],101%
same,residual activity,[19],105%
same,residual activity,[20],102%
same,residual activity,[21],98.2%
same,residual activity,[22],100%
same,residual activity,[23],86.5%
same,residual activity,[24],90.2%
same,residual activity,[25],96.8%
same,residual activity,[26],93.5% and 95.9%
same,residual activity,[27],97.4%
same,residual activity,[28],106%
same,residual activity,[29],114%
same,residual activity,[30],102%
same,residual activity,[31],78.8%
same,residual activity,[32],97.6%
same,residual activity,[33],104%
same,residual activity,[34],95.9%
same,residual activity,[35],101%
same,residual activity,[36],159%
same,residual activity,[37],106%
same,residual activity,[38],98.8%
same,residual activity,[39],67.4%
same,residual activity,[40],83.6%
same,residual activity,[41],94.8%
same,residual activity,[42],90%
